We go through 2 compounds from patent US4215069A, “Arylthiovinylcyclopropanecarboxylate intermediates” (FMC Corporation, priority 1979, dated 1980).

The test system of data set [1] is milkweed bug (Oncopeltus faciatus [Dallas]). The experiment in a line: Initial contact activity against milkweed bug (percent kill). The format is in vivo. Particulars: 72 hours exposure, read-out: Percent Kill MWB, initial activity. As for the experimental part:
(§1) The test compound was dissolved in a small amount of acetone, and the acetone solution was dispersed in water containing one drop of isooctylphenyl polyethoxyethanol to make a solution having 1250 ppm (w/w) active ingredient. Aliquots of this solution were diluted with an appropriate amount of water to provide solutions containing various concentrations of active ingredient. Test organisms and techniques were as follows: the activity against Mexican bean beetle (Epilachna varivestis Muls.) and southern armyworm (Spodoptera eridania [Cram.]) was evaluated by dipping the leaves of pinto bean plants into the test solution and infesting the leaves with the appropriate immature-form insects when the foliage had dried. The activity against the pea aphid (Acyrthosiphon pisum [Harris]) was evaluated on broad bean plants whose leaves were dipped before infestation with adult aphids. The activity against twospotted spider mites (Tetranychus urticae Koch) was evaluated on pinto bean plants whose leaves were dipped after infestation with adult mites. The activity against the milkweed bug (Oncopeltus faciatus [Dallas]) was evaluated by spraying the test solutions into glass dishes or jars containing the adult insects. Following application of the compound and infestation the tests were maintained in a holding room at 80° F. and 50% relative humidity for an exposure period of 72 hours. At the end of this time the dead and living insects or mites were counted and the percent kill was calculated. Results of these tests are summarized in Table I. Most of the compounds tested were active against all the insects.

For data set [2], the system named is Mexican bean beetle (Epilachna varivestis Muls.). The experiment in a line: Initial contact activity against Mexican bean beetle (percent kill). Particulars: 72 hours exposure, read-out: Percent Kill MBB, initial activity. The data set is classed as in vivo. As for the experimental part: as §1
Data set [3] deals with southern armyworm (Spodoptera eridania [Cram.]). The data set can be described thus: Initial contact activity against southern armyworm (percent kill). The data set is classed as in vivo. The note with it: 72 hours exposure, read-out: Percent Kill AW, initial activity. As for the experimental part: as §1
Data set [4] deals with pea aphid (Acyrthosiphon pisum [Harris]). The experiment in a line: Initial contact activity against pea aphid (percent kill). The format is in vivo. Particulars: 72 hours exposure, read-out: Percent Kill PA, initial activity. On the procedure:
as §1

Data set [5] concerns twospotted spider mites (Tetranychus urticae Koch). The experiment in a line: Initial contact activity against twospotted spider mite (percent kill). The data set is classed as in vivo. The note with it: 72 hours exposure, read-out: Percent Kill SM, initial activity. On the procedure: as §1
Another data set concerns Milkweed bug. The data set can be described thus: 7-day residual contact activity against milkweed bug (percent kill). The data set is classed as in vivo, Oncopeltus faciatus. The note with it: Oncopeltus fasciatus, 168 h, treated surface aged seven days in light and air, read-out: Percent Kill MWB, 7-day residual activity. As for the experimental part:
as §1
(§2) The residual contact activity of certain of the compounds was determined on the same organisms using the techniques described above, except that in each case the treated surface was allowed to dry and was exposed to normal light and air for seven days before introduction of the mites or insects. The seven day residual activity was minimal for the mite but substantial against the remaining organisms. Again, the remarkable activity of some of these compounds against milkweed bug and Mexican bean beetle was noted.

The next data set concerns Mexican bean beetle. The experiment in a line: 7-day residual contact activity against Mexican bean beetle (percent kill). The data set is classed as in vivo. The note with it: Epilachna varivestis, 168 h, treated surface aged seven days in light and air, read-out: Percent Kill MBB, 7-day residual activity. As for the experimental part: as §1, §2
Another data set relates to Southern armyworm. The data set can be described thus: 7-day residual contact activity against southern armyworm (percent kill). The format is in vivo. The note with it: Spodoptera eridania, 168 h, treated surface aged seven days in light and air, read-out: Percent Kill AW, 7-day residual activity. As for the experimental part: as §1, §2
A further data set deals with Pea aphid. The data set can be described thus: 7-day residual contact activity against pea aphid (percent kill). The format is in vivo. The note with it: Acyrthosiphon pisum, 168 h, treated surface aged seven days in light and air, read-out: Percent Kill PA, 7-day residual activity. As for the experimental part:
as §1, §2

The next data set relates to Twospotted spider mite. The data set can be described thus: 7-day residual contact activity against twospotted spider mite (percent kill). The format is in vivo. The note with it: Tetranychus urticae, 168 h, treated surface aged seven days in light and air, read-out: Percent Kill SM, 7-day residual activity. On the procedure: as §1, §2
The conditions of data set [6]: prior art, Elliott, et al.; cited from earlier work.

Turning to `CC1(C)C(C=C(Cl)Sc2ccccc2)C1C(=O)OCc1cccc(Oc2ccccc2)c1` (mixture of isomers) [Example 4, 3-phenoxybenzyl cis,trans-3-[2-(E,Z)chloro-2-phenylthioethenyl]-2,2-dimethylcyclopropanecarboxylate], the mortality at 78 ppm turned out to be 10% in data set [1] (78 ppm), 100% in [2] (78 ppm), 68% in data set [3] (78 ppm) and 75% in data set [4] (78 ppm). The mortality at 312 ppm in [1] (312 ppm) was 90%; in data set [2] (312 ppm), 100%; in data set [3] (312 ppm), 89%; in data set [4] (312 ppm), 100%; in [5] (312 ppm), 31%. For the same compound, the mortality at 1250 ppm worked out at 100% in data set [1] (1250 ppm); 95% in data set [2] (1250 ppm); 100% in data set [3] (1250 ppm); 100% in data set [4] (1250 ppm); 42% in data set [5] (1250 ppm). The mortality at 5 ppm worked out at 100% in data set [2] (5 ppm) and 11% in data set [3] (5 ppm). The mortality at 20 ppm in data set [2] (20 ppm) worked out at 94%; in [3] (20 ppm), 0%. Also, the activity at 312 ppm with Milkweed bug (312 ppm) is 20%; with Mexican bean beetle (312 ppm), 100%; in the data set with Southern armyworm (312 ppm), 55%; in the data set with Pea aphid (312 ppm), 0%. For the same compound, the activity at 1250 ppm was 100% in the data set with Milkweed bug (1250 ppm); 100% with Mexican bean beetle (1250 ppm); 95% in the data set with Southern armyworm (1250 ppm); 85% in the data set on Pea aphid (1250 ppm); 0% in the data set on Twospotted spider mite. Also, the values for the activity at 20 ppm in the data set with Mexican bean beetle (20 ppm) and in the data set with Southern armyworm (20 ppm) were 89% and 0%, respectively. In addition, the results for the activity at 78 ppm in the data set with Mexican bean beetle (78 ppm) and in the data set on Southern armyworm (78 ppm) were 100% and 5%, respectively.

For the compound `CC1(C)C(C=C(Cl)Cl)C1C(=O)OCc1cccc(Oc2ccccc2)c1` (stereo not drawn) [3-phenoxybenzyl 3-(β,β-dichlorovinyl)-2,2-dimethylcyclopropanecarboxylate], the “resistance to photo-oxidative degradation in words” value in data set [6] is on record as “remarkably resistent to photo-oxidative degradation”.
